Source: the supplement of paper PMC8617591

Legend:
[1] = tested on: Mycobacterium tuberculosis Erdman (autoluminescent); test: GRinf, maximum normalised growth rate inhibition (three-drug combination) (unitless (-1 to 1)); higher = less effect (negative = killing)
Protocol: (§1)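 DiaMOND equipotent three-drug combination dose responses (10 doses, 1.5- or 2-fold spacing, centred on IC90) against autoluminescent M. tuberculosis Erdman in 8 in vitro models. Read-out is OD600, or luminescence for the intracellular and dormancy models, normalised to untreated wells. Hill-fit Einf, AUC25 and GRinf are potency metrics; FIC50 and FIC90 are total Loewe fractional inhibitory concentrations as log2 (negative = synergy).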

[2] = tested on: Mycobacterium tuberculosis Erdman (autoluminescent); test: AUC25, normalised area under dose response up to IC25 (three-drug combination) (fraction (0-1)); higher = more potent at low dose
Protocol: as §1

[3] = tested on: Mycobacterium tuberculosis Erdman (autoluminescent); test: Einf, fitted maximum growth inhibition of three-drug combination (fraction); higher = stronger maximal inhibition
Protocol: as §1

[4] = tested on: Mycobacterium tuberculosis Erdman (autoluminescent); test: total FIC50 (Loewe) at 50% inhibition, three-drug combination (log2); higher = more antagonistic
Protocol: as §1

[5] = tested on: Mycobacterium tuberculosis Erdman (autoluminescent); test: total FIC90 (Loewe) at 90% inhibition, three-drug combination (log2); higher = more antagonistic
Protocol: as §1

CC(C)/N=c1\cc2n(-c3ccc(Cl)cc3)c3ccccc3nc-2cc1Nc1ccc(Cl)cc1 [clofazimine] + COc1c(N2C[C@@H]3CCCN[C@@H]3C2)c(F)cc2c(=O)c(C(=O)O)cn(C3CC3)c12 [moxifloxacin] + NC(=O)c1cnccn1 [pyrazinamide]
Settings	AUC25, [2]	Einf, [3]	GRinf, [1]	total FIC50, [4]	total FIC90, [5]
in vitro model: acidic pH 5.7, time point: constant (~7 days, model-specific)	0.0994	0.605	-0.618	0.273	–
in vitro model: acidic pH 5.7, time point: terminal (~4-5 doublings, model-specific)	0.0958	0.951	-0.261	-0.216	-0.195
in vitro model: intracellular J774, time point: constant = terminal	–	0.975	-0.333	–	0.42

Settings	AUC25, [2]	Einf, [3]	GRinf, [1]	total FIC50, [4]	total FIC90, [5]
in vitro model: butyrate, time point: constant (~7 days, model-specific)	0.127	0.968	-0.193	-0.173	0.847
in vitro model: butyrate, time point: terminal (~4-5 doublings, model-specific)	0.0926	0.973	-0.0738	-0.0902	0.342
in vitro model: cholesterol 0.05 mM, time point: constant (~7 days, model-specific)	0.129	0.646	-0.114	–	–
in vitro model: cholesterol 0.05 mM, time point: terminal (~4-5 doublings, model-specific)	0.112	0.927	-0.137	0.91	–
in vitro model: cholesterol-high 0.2 mM, time point: constant (~7 days, model-specific)	0.108	0.882	-0.3	0.275	–
in vitro model: cholesterol-high 0.2 mM, time point: terminal (~4-5 doublings, model-specific)	0.0989	0.998	-0.761	0.347	0.272
in vitro model: dormancy (butyrate + nitrate, low O2), time point: constant (~7 days, model-specific)	0.113	0.919	0.162	-0.332	-0.522
in vitro model: dormancy (butyrate + nitrate, low O2), time point: terminal (~4-5 doublings, model-specific)	0.0767	0.992	-0.202	0.182	0.297
in vitro model: standard 7H9 glycerol, time point: constant = terminal	0.111	0.974	-0.232	–	–
in vitro model: valerate, time point: constant (~7 days, model-specific)	0.122	0.852	-0.0384	0.546	–
in vitro model: valerate, time point: terminal (~4-5 doublings, model-specific)	0.067	0.914	0.0776	0.292	0.85

CC(C)/N=c1\cc2n(-c3ccc(Cl)cc3)c3ccccc3nc-2cc1Nc1ccc(Cl)cc1 [clofazimine] + COc1c(N2C[C@@H]3CCCN[C@@H]3C2)c(F)cc2c(=O)c(C(=O)O)cn(C3CC3)c12 [moxifloxacin] + O=[N+]([O-])c1cn2c(n1)OC[C@@H](OCc1ccc(OC(F)(F)F)cc1)C2 [pretomanid]
Settings	AUC25, [2]	Einf, [3]	GRinf, [1]	total FIC50, [4]	total FIC90, [5]
in vitro model: acidic pH 5.7, time point: constant (~7 days, model-specific)	0.111	0.66	-0.331	0.779	–
in vitro model: acidic pH 5.7, time point: terminal (~4-5 doublings, model-specific)	0.0647	0.93	-0.186	0.34	0.287
in vitro model: intracellular J774, time point: constant = terminal	–	0.981	-0.328	–	-0.136

Settings	AUC25, [2]	Einf, [3]	GRinf, [1]	total FIC50, [4]	total FIC90, [5]
in vitro model: butyrate, time point: constant (~7 days, model-specific)	0.114	0.945	-0.41	0.567	2.06
in vitro model: butyrate, time point: terminal (~4-5 doublings, model-specific)	0.101	0.989	-0.286	0.561	1.3
in vitro model: cholesterol 0.05 mM, time point: constant (~7 days, model-specific)	0.112	0.707	-0.152	0.31	–
in vitro model: cholesterol 0.05 mM, time point: terminal (~4-5 doublings, model-specific)	0.104	0.908	-0.0989	0.933	0.0471
in vitro model: cholesterol-high 0.2 mM, time point: constant (~7 days, model-specific)	0.108	0.921	-0.386	0.526	2.16
in vitro model: cholesterol-high 0.2 mM, time point: terminal (~4-5 doublings, model-specific)	0.111	1	-0.905	0.181	0.651
in vitro model: dormancy (butyrate + nitrate, low O2), time point: constant (~7 days, model-specific)	0.096	0.958	0.184	0.193	-0.0601
in vitro model: dormancy (butyrate + nitrate, low O2), time point: terminal (~4-5 doublings, model-specific)	0.0701	0.981	-0.138	0.461	0.601
in vitro model: standard 7H9 glycerol, time point: constant = terminal	0.112	0.974	-0.306	-0.121	0.463
in vitro model: valerate, time point: constant (~7 days, model-specific)	0.117	0.881	-0.0836	0.973	–
in vitro model: valerate, time point: terminal (~4-5 doublings, model-specific)	0.0939	0.934	-0.0367	0.371	-0.0804

CC(C)/N=c1\cc2n(-c3ccc(Cl)cc3)c3ccccc3nc-2cc1Nc1ccc(Cl)cc1 [clofazimine] + NC(=O)c1cnccn1 [pyrazinamide] + CO[C@H]1/C=C/O[C@@]2(C)Oc3c(C)c(O)c4c(O)c(c(/C=N/N5CCN(C6CCCC6)CC5)c(O)c4c3C2=O)NC(=O)/C(C)=C\C=C\[C@H](C)[C@H](O)[C@@H](C)[C@@H](O)[C@@H](C)[C@H](OC(C)=O)[C@@H]1C [rifapentine]
Settings	AUC25, [2]	Einf, [3]	GRinf, [1]	total FIC50, [4]	total FIC90, [5]
in vitro model: acidic pH 5.7, time point: constant (~7 days, model-specific)	0.0912	0.872	-0.0882	-0.248	–
in vitro model: acidic pH 5.7, time point: terminal (~4-5 doublings, model-specific)	0.0866	0.992	-0.166	-0.185	-0.282
in vitro model: intracellular J774, time point: constant = terminal	–	0.987	-0.31	–	-0.162

Settings	AUC25, [2]	Einf, [3]	GRinf, [1]	total FIC50, [4]	total FIC90, [5]
in vitro model: butyrate, time point: constant (~7 days, model-specific)	0.112	0.934	-0.137	0.135	0.657
in vitro model: butyrate, time point: terminal (~4-5 doublings, model-specific)	0.0906	0.969	-0.0833	0.161	0.364
in vitro model: cholesterol 0.05 mM, time point: constant (~7 days, model-specific)	0.142	0.621	-0.201	–	–
in vitro model: cholesterol 0.05 mM, time point: terminal (~4-5 doublings, model-specific)	0.111	0.899	-0.27	0.876	–
in vitro model: cholesterol-high 0.2 mM, time point: constant (~7 days, model-specific)	0.121	0.905	-0.547	0.527	–
in vitro model: cholesterol-high 0.2 mM, time point: terminal (~4-5 doublings, model-specific)	0.0971	0.984	-0.634	0.828	0.832
in vitro model: dormancy (butyrate + nitrate, low O2), time point: constant (~7 days, model-specific)	0.0828	0.929	0.0852	-0.285	-1.22
in vitro model: dormancy (butyrate + nitrate, low O2), time point: terminal (~4-5 doublings, model-specific)	0.0573	0.993	-0.269	-0.0992	0.0246
in vitro model: standard 7H9 glycerol, time point: constant = terminal	0.115	0.936	-0.0744	-0.0271	–
in vitro model: valerate, time point: constant (~7 days, model-specific)	0.118	0.911	-0.101	0.0622	–
in vitro model: valerate, time point: terminal (~4-5 doublings, model-specific)	0.0526	0.901	0.0624	0.391	1.33
